These antisense oligonucleotides have a phosphorothioate backbone; sugars and methylation of C are not fully specified. A value given as a limit tells only on which side of the number the result lay.
Also: test concentration or dose not given here.

The target of one data set is SRA1. To be noted: ASO.
The sequence CGTCGGCTGATGTCATCA registered a remaining target (mRNA or protein) (fraction of control) of 0.61. The same measure, in the same setting: next, GCTGTGGCTGCAGATTTC: 0.48; ATCTGCTGCGTCCCACCG: 0.9. In turn, CCATTCTCTTCTTTACAG registered a remaining target (mRNA or protein) (fraction of control) of 0.6. On the same count and under the same terms, in the case of GGAGCCTTACTTGAAGGA it was 0.54.

TCTGCTGCGTCCCACCGG: the remaining target (mRNA or protein) (fraction of control) is 0.32. On the same count and under the same terms, in the case of TTCTCATGCTGAAATGAA it was 0.74. On the same count and under the same terms, next, CTCCTACCATCCACTGAC: 0.46; GGAGCCAAGTGACAGAAG: 0.86. On the same count and under the same terms, next, CCTTGTGTGGCCACGGCA: 0.43; TCAGTCACATGGTCAACC: 0.5.

For the sequence CCAGCCGCGTTCCTTGTT, the remaining target (mRNA or protein) (fraction of control) is 0.69.

Take TCAGCACATCCTCCATCA: the remaining target (mRNA or protein) (fraction of control) came to 0.97.

Sequence AAACTTGTGGGCTCCACG yielded a remaining target (mRNA or protein) (fraction of control) of 0.18. CAACTTTCCTCCAGCCCA gave a remaining target (mRNA or protein) (fraction of control) of 0.41. On the same count and under the same terms, next, GGCGTCGGCTGATGTCAT: 0.42. Regarding GAGGGAGCGGTGGATGTC, the remaining target (mRNA or protein) (fraction of control) was determined as 0.48.

Sequence GTATGGTATGGTTCTTCT came in with a remaining target (mRNA or protein) (fraction of control) of 0.94. The same measure, in the same setting: next, CCGCGTTCCTTGTTGCCG: 0.94. Still for that read-out and setting: next, ACCACTCCCCACAGGTGG: at least 1; CTCTGGCCCAGGTGGGAC: 0.55; TGAATGGAGAAGGGAGAA: 0.75. Regarding ACCCTCTTGGTAAGCAGC, the remaining target (mRNA or protein) (fraction of control) is at least 1. Turning to CTTTCCTTTTGTTGAGGG, the remaining target (mRNA or protein) (fraction of control) was at least 1. Sequence TTGGCTGCCTCCTCTGAA came in with a remaining target (mRNA or protein) (fraction of control) of 0.58. CTCGACTGGGAAACTTGT yielded a remaining target (mRNA or protein) (fraction of control) of 0.63. Turning to ACATACCTGCTTCCTTGT, the remaining target (mRNA or protein) (fraction of control) was at least 1.

In the case of CGGCAGTCTTCCAATGCC, the remaining target (mRNA or protein) (fraction of control) was at least 1. TGAAAGCTCTTGCACCAG came in with a remaining target (mRNA or protein) (fraction of control) of 0.64. Same read-out and setting: in the case of CAGTGCCAGGCGTCGGCT it was 0.66; in that of GCACCAGTAGAGCCATTC, 0.3. The same measure, in the same setting: in the case of CCACCGGTGGCTTGAAAG it was 0.85; in that of ATTTGAGGAGATGGTGTC, 0.94; in that of TTTCACCGCAGAGATGTT, at least 1. Still for that read-out and setting: next, ACCATCCACTGACTGACC: at least 1; TTCCTTGTTGCCTGCGGA: 0.72. Take GCTTGAAAGCTCTTGCAC: the remaining target (mRNA or protein) (fraction of control) is at least 1.

Target in another data set: not given
The following applies: ASO.
For ACTGCCTTCTCTGCCCACTT, the remaining target (mRNA or protein) (fraction of control) worked out at 0.41. Turning to CCACCGCCGCCGCCGCTG, the remaining target (mRNA or protein) (fraction of control) is 0.62. The same measure, in the same setting: in the case of TTACGCTCTGACTTCTGG it was 0.81; in that of ATCGTGCGCCCTTCTTGC, at least 1; in that of TGGTGGAGTGCATAAGAGGC, 0.47. Sequence ATTCAGCATTTTGTAAGG registered a remaining target (mRNA or protein) (fraction of control) of 0.99. CTGCTGTATCATTTTCTT came in with a remaining target (mRNA or protein) (fraction of control) of at least 1.

For GCGCGTCCGGTGCTCCCA, the remaining target (mRNA or protein) (fraction of control) was determined as 0.75.

TAGATGCACTTGGAGCGA displayed a remaining target (mRNA or protein) (fraction of control) of at least 1. Still for that read-out and setting: next, TCCATTTCTTACGCTCTG: at least 1; GCAGAGCCGGCTGAAGTG: 0.96.

The sequence ACCAGCCCCGAGCGTTTG gave a remaining target (mRNA or protein) (fraction of control) of 0.74. The same measure, in the same setting: next, GGCTCAGAAGGACTTCCTGG: 0.65. On the same count and under the same terms, next, TTATTCATACCGTTGTTG: 0.96; GAGAGATGCCCACCCACC: at least 1; CTTCTTGCTGCCCTCGGG: at least 1. The same measure, in the same setting: in the case of CATAAGAGGCCACAGCAGGC it was 0.41. TTCTCCTGTCCACTAGAG returned a remaining target (mRNA or protein) (fraction of control) of 0.98.

With TTCTGTGTGTCTGTGGCA, the remaining target (mRNA or protein) (fraction of control) turned out to be 0.19. Same read-out and setting: next, GCACAGCCTGTCTTCAAA: at least 1.

The sequence CTGCCTCTCTCTCCTCCG returned a remaining target (mRNA or protein) (fraction of control) of at least 1. As to CCACTCCCACCTCCCACC, the remaining target (mRNA or protein) (fraction of control) was at least 1. Still for that read-out and setting: next, TTTCTATCGTTGAGTTTCTG: at least 1; GTTGATCTCGTCCAGGTA: 0.28.

Consider GGCGGCCTTCTCATCCTC, for which the remaining target (mRNA or protein) (fraction of control) was 0.96.

GACGTGCCTTTCTGCTAC returned a remaining target (mRNA or protein) (fraction of control) of 0.72. On the same count and under the same terms, in the case of ACAGATCCAGTGGCTTGT it was at least 1; in that of AACGTGGTCACTTTATAG, 0.73.

Sequence AGCTCCCTTCTTACTCCC showed a remaining target (mRNA or protein) (fraction of control) of 0.69. On the same count and under the same terms, next, GCCCTTTGCTTTCCAGAG: at least 1; AACTGAAATAACAACTTA: 0.94; AAAGCCGTGGTGAACTGACT: 0.84. On the same count and under the same terms, in the case of CTTTCAAAGGAGGGAAAC it was at least 1. On the same count and under the same terms, in the case of CCTTCAAAAGTTGTGCGG it was at least 1. For the sequence CCCTAGTCCACAGGTTCC, the remaining target (mRNA or protein) (fraction of control) is at least 1. On the same count and under the same terms, in the case of TTTCTGCACGGAGAAGCA it was 0.26; in that of TTTCTCATTGCCTTCACG, at least 1; in that of TGTCCTGGTGAGAGGCAG, 0.73. Consider TGTCTGGGTCCACCGTGC, for which the remaining target (mRNA or protein) (fraction of control) turned out to be 0.45. The same measure, in the same setting: next, CTATGGAAATGCAGCTTAAG: 0.87. Still for that read-out and setting: in the case of GTGTAGTGGCTGAAAAGG it was at least 1. Same read-out and setting: in the case of GAGGCGCTGCGGAACTTGGC it was 0.5.

GGCTGCTGAGAATCTGAA registered a remaining target (mRNA or protein) (fraction of control) of 0.78. The same measure, in the same setting: next, ACGTAGCCCTCCTCGGTG: at least 1; CCGCTCTTGGGTCTGGCA: 0.29; TGGAGAGATAGACCAGGA: 0.67. Same read-out and setting: next, CCATGGTGCGGTGGCCTC: 0.94; TCACAGCAGGTTGATCTC: at least 1; ACCACAGAACTGAAGGTT: at least 1. The same measure, in the same setting: in the case of TCAGCATCCTGCTTAGGG it was at least 1; in that of ATCAGACTGGAGAGGAGC, 0.73. As for GTCCCAGAACCCTGCCCA, the remaining target (mRNA or protein) (fraction of control) was at least 1. The same measure, in the same setting: in the case of GCTCCAGCAGCAGCAGCC it was 0.94; in that of GGCGAAGCTGATGCGGAC, at least 1; in that of TTGGTATCGATAGCACTACA, 0.96.

On to CAGCACCCCAACCCTTAACA, for which the remaining target (mRNA or protein) (fraction of control) worked out at 0.47. On the same count and under the same terms, in the case of CCCCTCCACAAAAGTGCC it was 0.78; in that of GTCTTCAGTGTTTTCATT, at least 1; in that of TGAAGATGAATCTCAATCCA, 0.88. Same read-out and setting: next, TTGCCCAACCACTCGTTC: 0.45; CACCGATGCAGAGGTCGC: 0.87. On the same count and under the same terms, in the case of CCAACAAAACAGTCCAAA it was 0.94; in that of AGAAAAGGAAATCCCAAA, at least 1. TGCACCAGTGGCTCGGCT: the remaining target (mRNA or protein) (fraction of control) was at least 1.

GGATCCTGTTGATCTCCT displayed a remaining target (mRNA or protein) (fraction of control) of at least 1.

TCATGGCCCGCATGGACA came in with a remaining target (mRNA or protein) (fraction of control) of 0.7.

AGGGAATAAATACAAAAG returned a remaining target (mRNA or protein) (fraction of control) of at least 1.

On to GCTCCCATCCTCGTCGCC, for which the remaining target (mRNA or protein) (fraction of control) is at least 1. On the same count and under the same terms, in the case of CTTTACTTCGCCGTCCAC it was 0.59. Still for that read-out and setting: next, TGCATAAGAGGCCACAGCAG: 0.44. On the same count and under the same terms, next, TGTTAAGACACTGAAGAAAT: at least 1. In the case of GTAAGTCCAGGAGATAGC, the remaining target (mRNA or protein) (fraction of control) is 0.86. The same measure, in the same setting: next, GGGCCCAAAAGCAGCAGC: 0.89; CCATCTATGAGCACACTTCG: 0.33; TCGGCGGTGGCAAGGCTT: 0.97. Still for that read-out and setting: next, CCTTGAAGACCTTGCGGA: 0.14; GTAGATGAGGGCGATCAC: at least 1; GGGGTGGTGGAGTGCATAAG: 0.9. The same measure, in the same setting: next, ATTCTCCCAAAGCGTCCC: 0.81; GGGAGTTGACGAAGATGG: 0.96. Turning to AAAGCCATAGCCAGTTGC, the remaining target (mRNA or protein) (fraction of control) is at least 1.

Turning to CCAGGCTAAACCAGGCTG, the remaining target (mRNA or protein) (fraction of control) stood at 0.43.

Source of the values: the OligoGym collection.
